From patent US20210077625A1, “RAY TRACING TECHNIQUE FOR WIRELESS CHANNEL MEASUREMENTS” (Cohere Technologies, Inc., priority 2017, published 2021)

Legend:
[1] = system: LM36R human melanoma xenograft; experiment: Tumor growth of vemurafenib-resistant LM36R melanoma xenograft in nude mice; format: in vivo, mouse; conditions: nude male mice, 5 mg of drug/kg per injection, bi-weekly tail vein, 4 weeks, n=5 per group; p-value 0.048 at week 4
Description: Vemurafenib-resistant LM36R human melanoma cells were inoculated (5.0×10^5 cells/mouse) into the right flank of athymic Nu/Nu nude male mice (Cr1:NU-Foxn1^nu strain code 088)) n=5 per group, and progression of tumor was recorded using the volume model of length×(width^2)×0.52. Mice were split into four groups consisting of a control (empty HANP), free Tris DBA-Pd, HANP with Tris DBA-Pd, and HANP with Tris DBA-Pd and αIGF1R antibody. Free Tris DBA-Pd was first dissolved in DMSO and then mixed with Kolliphor EL™. At last, the mixture was diluted by H2O before injection at concentration of 1 mg/mL of DBA. The ratio of DMSO, Kolliphor EL™ and H2O was controlled as 1:2:7 (v/v). The treatments were administered through bi-weekly tail vein injections over the course of 4 weeks (5 mg of drug/kg per injection). Tumor samples were analyzed for CD44 (hyaluronate receptor) expression by immunohistochemistry.

melanoma = conditions: reported in literature; cited from earlier work
[2] = Dispersion, solubility and stability in water, FBS, cell culture media; format: physicochemical; conditions: for solubility (general statement): water / not specified
[3] = target: T1, N-myristoyltransferase 1 (NMT1) (Homo sapiens, UniProt P30419); conditions: reported in literature; cited from earlier work
T1 sequence (P30419 1-496): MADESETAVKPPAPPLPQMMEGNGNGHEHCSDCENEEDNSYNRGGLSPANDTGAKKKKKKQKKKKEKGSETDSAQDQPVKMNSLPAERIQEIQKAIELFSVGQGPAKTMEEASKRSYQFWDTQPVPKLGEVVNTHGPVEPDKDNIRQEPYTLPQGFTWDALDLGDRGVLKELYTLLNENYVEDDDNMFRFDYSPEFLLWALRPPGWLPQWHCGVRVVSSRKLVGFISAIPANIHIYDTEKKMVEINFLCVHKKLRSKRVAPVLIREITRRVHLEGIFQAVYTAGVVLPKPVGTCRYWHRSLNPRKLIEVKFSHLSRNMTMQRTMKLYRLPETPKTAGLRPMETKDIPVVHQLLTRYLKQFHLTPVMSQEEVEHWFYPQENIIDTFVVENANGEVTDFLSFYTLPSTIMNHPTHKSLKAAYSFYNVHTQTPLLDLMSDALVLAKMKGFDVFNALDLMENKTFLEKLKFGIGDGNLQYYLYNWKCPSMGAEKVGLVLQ

LM36R xenograft tumor = experiment: Gene array / microarray RNA analysis of LM36R xenograft tumors; format: in vivo
Description: Gene array was performed on all tumors. […] By varying the delivery process of a single drug, one might be able to prevent resistance.
RNA Extraction and QC: RNA was extracted using the Qiagen miRNEasy™ kit with on column DNAse treatment. Tissue was lysed and homogenized in Qiazol™ with a rotor-stator probe homogenizer for 40 seconds or until fully disrupted (1 ml Qiazol™ per 100 mg of tissue). RNA was eluted in 50 ul nuclease free water. One microliter was used to determine OD (optical density) values on a Nanodrop 1000. One microliter was used to assess sample profiles on the Agilent 2100 using the RNA 6000 Nano assay. Total RNA (250 ng) was amplified and labeled using the ThermoFisher Scientific Illuina™ TotalPrep™ RNA Amplification kit. Labeled cRNA was hybridized to Illumina HT12™ bead array. Image acquisition and data extraction were performed.

[4] = at 25° C.; cited from earlier work

Compound | inhibition of LM36R tumor growth (tumor volume) [1] | efficacy against melanoma in vitro and preclinical models of pancreatic cancer, chronic lymphocytic leukemia, multiple myeloma (melanoma) | solubility (general statement) [2] | solubility (general statement) ([2]; listed as Tris (dibenzylideneacetone) dipalladium) | behaviour in water, FBS, and cell culture media ([2]; water, FBS, cell culture media) | activity against the enzyme N-myristoyltransferase 1 [3] | SCG2 (secretogranin 2) gene expression (LM36R xenograft tumor) | percent solubility in water by weight [4]
Tris (dibenzylideneacetone) dipalladium [Tris DBA-Pd] | showed efficacy | efficacious | Water-insoluble | poor solubility | immediately precipitated | activity | downregulated | –
CCCCCCCC [octane] | – | – | – | – | – | – | – | 0.63×10^−4 % w/w
